Reference: US11441131B2, “Heparosan synthases and use thereof for saccharide synthesis” (The Regents of the University of California, priority 2019, dated 2022)

Assays:
His6-Δ80PmHS2 = assay: Donor substrate specificity of GlcNAcT activity (HPLC), His6-Δ80PmHS2; type: biochemical, Pasteurella multocida; conditions: acceptor GlcAβ2AA
Text: (§1) Donor substrate specificity assays. […] Chromatographic separation and detection were achieved similarly to that described above for kinetics studies.

His6-PmHS2 = assay: Donor substrate specificity of GlcNAcT activity (HPLC), His6-PmHS2; type: biochemical, Pasteurella multocida; conditions: acceptor GlcAβ2AA
Text: as §1

[1] = β1-4GlcA-transferase activity of designed mutants; type: biochemical

## [N-]=[N+]=NC1C(OP(=O)(O)OP(=O)(O)OCC2OC(n3ccc(=O)[nH]c3=O)C(O)C2O)OC(CO)C(O)C1O (stereo not shown) [UDP-GlcN3]
His6-Δ80PmHS2
  suitability as donor substrate: not suitable donor substrates
His6-PmHS2
  suitability as donor substrate: not suitable donor substrates

## CC(=O)NC1C(OP(=O)(O)OP(=O)(O)OCC2OC(n3ccc(=O)[nH]c3=O)C(O)C2O)OC(CN=[N+]=[N-])C(O)C1O (stereo not shown) [UDP-GlcNAc6N3]
His6-Δ80PmHS2
  suitability as donor substrate: suitable donor substrates
His6-PmHS2
  suitability as donor substrate: suitable donor substrates

## CC(=O)NC1C(OP(=O)(O)OP(=O)(O)OCC2OC(n3ccc(=O)[nH]c3=O)C(O)C2O)OC(COS(=O)(=O)O)C(O)C1O (stereo not shown) [UDP-GlcNAc6S]
His6-Δ80PmHS2
  suitability as donor substrate: not suitable donor substrates
His6-PmHS2
  suitability as donor substrate: not suitable donor substrates

## [N-]=[N+]=NCC(=O)N[C@H]1[C@@H](OP(=O)(O)OP(=O)(O)OC[C@H]2O[C@@H](n3ccc(=O)[nH]c3=O)[C@H](O)[C@@H]2O)O[C@H](CO)[C@@H](O)[C@@H]1O [UDP-GlcNAz]
His6-Δ80PmHS2
  suitability as donor substrate: suitable donor substrates
His6-PmHS2
  suitability as donor substrate: suitable donor substrates

## O=c1ccn([C@@H]2O[C@H](COP(=O)(O)OP(=O)(O)O[C@H]3O[C@H](CO)[C@@H](O)[C@H](O)[C@H]3NS(=O)(=O)O)[C@@H](O)[C@H]2O)c(=O)[nH]1 [UDP-GlcNS]
His6-Δ80PmHS2
  suitability as donor substrate: not suitable donor substrates
His6-PmHS2
  suitability as donor substrate: not suitable donor substrates

## O=C(N[C@H]1[C@@H](OP(=O)(O)OP(=O)(O)OC[C@H]2O[C@@H](n3ccc(=O)[nH]c3=O)[C@H](O)[C@@H]2O)O[C@H](CO)[C@@H](O)[C@@H]1O)C(F)(F)F [UDP-GlcNTFA]
His6-Δ80PmHS2
  suitability as donor substrate: suitable donor substrates
His6-PmHS2
  suitability as donor substrate: suitable donor substrates

## UDP-GlcNAc6NAcPh
His6-Δ80PmHS2
  suitability as donor substrate: not suitable donor substrates
His6-PmHS2
  suitability as donor substrate: not suitable donor substrates

B1: Y176A (protein)
chain: MGSSHHHHHHSFEKIYTYNQALEAKLEKDKQTTSITDLYNEVAKSDLGLVKETNSANPLVSIIMTSHNTAQFIEASINSLLLQTYKNIEIIIVDDDSSDNTFEIASRIANTTSKVRVFRLNSNLGTYFAKNTGILKSKGDIIFFQDSDDVCHHERIERCVNILLANKETIAVRCAASRLAPETQHIIKVNNMDYRLGFITLGMHRKVFQEIGFFNCTTKGSDDEFFHRIAKYYGKEKIKNLLLPLYYNTMRENSLFTDMVEWIDNHNIIQKMSDTRQHYATLFQAMHNETASHDFKNLFQFPRIYDALPVPQEMSKLSNPKIPVYINICSIPSRIAQLQRIIGILKNQCDHFHIYLDGYVEIPDFIKNLGNKATVVHCKDKDNSIRDNGKFILLEELIEKNQDGYYITCDDDIIYPSDYINTMIKKLNEYDDKAVIGLHGILFPSRMTKYFSADRLVYSFYKPLEKDKAVNVLGTGTVSFRVSLFNQFSLSDFTHSGMADIYFSLLCKKNNILQICISRPANWLTEDNRDSETLYHQYRDNDEQQTQLIMENGPWGYSSIYPLVKNHPKFTDLIPCLPFYFL
[1]
  β1-4GlcA-transferase activity: retained

B2: I199A (protein)
chain: MGSSHHHHHHSFEKIYTYNQALEAKLEKDKQTTSITDLYNEVAKSDLGLVKETNSANPLVSIIMTSHNTAQFIEASINSLLLQTYKNIEIIIVDDDSSDNTFEIASRIANTTSKVRVFRLNSNLGTYFAKNTGILKSKGDIIFFQDSDDVCHHERIERCVNILLANKETIAVRCAYSRLAPETQHIIKVNNMDYRLGFATLGMHRKVFQEIGFFNCTTKGSDDEFFHRIAKYYGKEKIKNLLLPLYYNTMRENSLFTDMVEWIDNHNIIQKMSDTRQHYATLFQAMHNETASHDFKNLFQFPRIYDALPVPQEMSKLSNPKIPVYINICSIPSRIAQLQRIIGILKNQCDHFHIYLDGYVEIPDFIKNLGNKATVVHCKDKDNSIRDNGKFILLEELIEKNQDGYYITCDDDIIYPSDYINTMIKKLNEYDDKAVIGLHGILFPSRMTKYFSADRLVYSFYKPLEKDKAVNVLGTGTVSFRVSLFNQFSLSDFTHSGMADIYFSLLCKKNNILQICISRPANWLTEDNRDSETLYHQYRDNDEQQTQLIMENGPWGYSSIYPLVKNHPKFTDLIPCLPFYFL
[1]
  β1-4GlcA-transferase activity: retained

B3: R195A (protein)
chain: MGSSHHHHHHSFEKIYTYNQALEAKLEKDKQTTSITDLYNEVAKSDLGLVKETNSANPLVSIIMTSHNTAQFIEASINSLLLQTYKNIEIIIVDDDSSDNTFEIASRIANTTSKVRVFRLNSNLGTYFAKNTGILKSKGDIIFFQDSDDVCHHERIERCVNILLANKETIAVRCAYSRLAPETQHIIKVNNMDYALGFITLGMHRKVFQEIGFFNCTTKGSDDEFFHRIAKYYGKEKIKNLLLPLYYNTMRENSLFTDMVEWIDNHNIIQKMSDTRQHYATLFQAMHNETASHDFKNLFQFPRIYDALPVPQEMSKLSNPKIPVYINICSIPSRIAQLQRIIGILKNQCDHFHIYLDGYVEIPDFIKNLGNKATVVHCKDKDNSIRDNGKFILLEELIEKNQDGYYITCDDDIIYPSDYINTMIKKLNEYDDKAVIGLHGILFPSRMTKYFSADRLVYSFYKPLEKDKAVNVLGTGTVSFRVSLFNQFSLSDFTHSGMADIYFSLLCKKNNILQICISRPANWLTEDNRDSETLYHQYRDNDEQQTQLIMENGPWGYSSIYPLVKNHPKFTDLIPCLPFYFL
[1]
  β1-4GlcA-transferase activity: retained

B4: T200A (protein)
chain: MGSSHHHHHHSFEKIYTYNQALEAKLEKDKQTTSITDLYNEVAKSDLGLVKETNSANPLVSIIMTSHNTAQFIEASINSLLLQTYKNIEIIIVDDDSSDNTFEIASRIANTTSKVRVFRLNSNLGTYFAKNTGILKSKGDIIFFQDSDDVCHHERIERCVNILLANKETIAVRCAYSRLAPETQHIIKVNNMDYRLGFIALGMHRKVFQEIGFFNCTTKGSDDEFFHRIAKYYGKEKIKNLLLPLYYNTMRENSLFTDMVEWIDNHNIIQKMSDTRQHYATLFQAMHNETASHDFKNLFQFPRIYDALPVPQEMSKLSNPKIPVYINICSIPSRIAQLQRIIGILKNQCDHFHIYLDGYVEIPDFIKNLGNKATVVHCKDKDNSIRDNGKFILLEELIEKNQDGYYITCDDDIIYPSDYINTMIKKLNEYDDKAVIGLHGILFPSRMTKYFSADRLVYSFYKPLEKDKAVNVLGTGTVSFRVSLFNQFSLSDFTHSGMADIYFSLLCKKNNILQICISRPANWLTEDNRDSETLYHQYRDNDEQQTQLIMENGPWGYSSIYPLVKNHPKFTDLIPCLPFYFL
[1]
  β1-4GlcA-transferase activity: retained

B5: L196A (protein)
chain: MGSSHHHHHHSFEKIYTYNQALEAKLEKDKQTTSITDLYNEVAKSDLGLVKETNSANPLVSIIMTSHNTAQFIEASINSLLLQTYKNIEIIIVDDDSSDNTFEIASRIANTTSKVRVFRLNSNLGTYFAKNTGILKSKGDIIFFQDSDDVCHHERIERCVNILLANKETIAVRCAYSRLAPETQHIIKVNNMDYRAGFITLGMHRKVFQEIGFFNCTTKGSDDEFFHRIAKYYGKEKIKNLLLPLYYNTMRENSLFTDMVEWIDNHNIIQKMSDTRQHYATLFQAMHNETASHDFKNLFQFPRIYDALPVPQEMSKLSNPKIPVYINICSIPSRIAQLQRIIGILKNQCDHFHIYLDGYVEIPDFIKNLGNKATVVHCKDKDNSIRDNGKFILLEELIEKNQDGYYITCDDDIIYPSDYINTMIKKLNEYDDKAVIGLHGILFPSRMTKYFSADRLVYSFYKPLEKDKAVNVLGTGTVSFRVSLFNQFSLSDFTHSGMADIYFSLLCKKNNILQICISRPANWLTEDNRDSETLYHQYRDNDEQQTQLIMENGPWGYSSIYPLVKNHPKFTDLIPCLPFYFL
[1]
  β1-4GlcA-transferase activity: retained
